Results reported in patent US8471005B2 (Cephalon, Inc., priority 2008, dated 2013).
Like-named read-outs stand apart in the source and are kept apart here.

How the values were obtained:
ALK = target: T1, ALK (Homo sapiens, UniProt Q9UM73); assay: ALK Kinase Assay (ELISA/TRF, PLC-γ substrate); assay type: biochemical; settings: read-out: ALK Potency
T1 construct: host or cells: baculovirus expression system
Method in brief: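 Time-resolved fluorescence ELISA using Eu-N1 PT66 antibody to detect phosphorylated PLC-γ (coated at 10 μg/mL). Enzyme at 30 ng/ml ALK; 15 min incubation, 37° C.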

JAK2 = target: T2, JAK2 (Homo sapiens, UniProt O60674); assay: Recombinant Human JAK2 Kinase Assay (TRF); assay type: biochemical; settings: read-out: JAK2 Potency
T2 construct: host or cells: baculovirus expression system
T2 sequence (O60674 whole entry): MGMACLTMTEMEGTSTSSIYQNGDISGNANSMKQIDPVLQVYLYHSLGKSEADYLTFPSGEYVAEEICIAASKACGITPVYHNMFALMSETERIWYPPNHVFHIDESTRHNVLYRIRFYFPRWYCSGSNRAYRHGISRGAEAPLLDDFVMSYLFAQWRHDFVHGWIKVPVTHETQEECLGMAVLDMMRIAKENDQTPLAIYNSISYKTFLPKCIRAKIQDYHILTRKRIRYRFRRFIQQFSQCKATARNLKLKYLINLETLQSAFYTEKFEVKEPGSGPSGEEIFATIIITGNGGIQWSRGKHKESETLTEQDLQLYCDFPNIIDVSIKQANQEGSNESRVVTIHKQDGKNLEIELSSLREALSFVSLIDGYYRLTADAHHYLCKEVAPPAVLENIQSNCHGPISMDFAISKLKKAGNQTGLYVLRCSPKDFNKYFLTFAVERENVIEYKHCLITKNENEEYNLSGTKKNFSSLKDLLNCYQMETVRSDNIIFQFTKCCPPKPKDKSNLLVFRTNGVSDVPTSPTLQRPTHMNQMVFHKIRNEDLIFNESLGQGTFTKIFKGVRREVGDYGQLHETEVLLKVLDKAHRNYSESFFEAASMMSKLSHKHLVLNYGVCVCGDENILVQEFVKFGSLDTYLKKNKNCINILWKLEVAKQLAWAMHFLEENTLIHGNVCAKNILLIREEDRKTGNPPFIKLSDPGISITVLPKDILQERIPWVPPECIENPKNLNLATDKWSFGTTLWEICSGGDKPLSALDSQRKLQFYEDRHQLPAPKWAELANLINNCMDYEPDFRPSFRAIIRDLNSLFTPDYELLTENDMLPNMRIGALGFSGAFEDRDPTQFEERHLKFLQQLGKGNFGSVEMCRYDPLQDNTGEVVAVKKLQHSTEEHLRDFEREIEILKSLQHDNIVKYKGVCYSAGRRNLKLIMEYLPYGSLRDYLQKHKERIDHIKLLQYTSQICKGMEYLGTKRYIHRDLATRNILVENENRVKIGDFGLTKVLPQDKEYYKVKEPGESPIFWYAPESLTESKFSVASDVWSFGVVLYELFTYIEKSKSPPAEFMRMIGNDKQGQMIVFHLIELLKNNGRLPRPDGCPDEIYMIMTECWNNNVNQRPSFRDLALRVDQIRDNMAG
Method in brief: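 Europium-labelled PY100 antibody reported tyrosine phosphorylation of a Neutravidin-captured biotinyl 15-mer peptide by JAK2 (baculovirus-expressed, 15 ng/ml). Conditions: 20 mM HEPES pH 7.2, 0.2 μM ATP, 1 mM MnCl2, 0.1% BSA, DMSO 2.5% final, 20 min at room temperature.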

[1] = ALK kinase inhibition, 1 μM ATP
[2] = JAK2 kinase inhibition, 0.2 μM ATP

T1 sequence (Q9UM73 19-1620): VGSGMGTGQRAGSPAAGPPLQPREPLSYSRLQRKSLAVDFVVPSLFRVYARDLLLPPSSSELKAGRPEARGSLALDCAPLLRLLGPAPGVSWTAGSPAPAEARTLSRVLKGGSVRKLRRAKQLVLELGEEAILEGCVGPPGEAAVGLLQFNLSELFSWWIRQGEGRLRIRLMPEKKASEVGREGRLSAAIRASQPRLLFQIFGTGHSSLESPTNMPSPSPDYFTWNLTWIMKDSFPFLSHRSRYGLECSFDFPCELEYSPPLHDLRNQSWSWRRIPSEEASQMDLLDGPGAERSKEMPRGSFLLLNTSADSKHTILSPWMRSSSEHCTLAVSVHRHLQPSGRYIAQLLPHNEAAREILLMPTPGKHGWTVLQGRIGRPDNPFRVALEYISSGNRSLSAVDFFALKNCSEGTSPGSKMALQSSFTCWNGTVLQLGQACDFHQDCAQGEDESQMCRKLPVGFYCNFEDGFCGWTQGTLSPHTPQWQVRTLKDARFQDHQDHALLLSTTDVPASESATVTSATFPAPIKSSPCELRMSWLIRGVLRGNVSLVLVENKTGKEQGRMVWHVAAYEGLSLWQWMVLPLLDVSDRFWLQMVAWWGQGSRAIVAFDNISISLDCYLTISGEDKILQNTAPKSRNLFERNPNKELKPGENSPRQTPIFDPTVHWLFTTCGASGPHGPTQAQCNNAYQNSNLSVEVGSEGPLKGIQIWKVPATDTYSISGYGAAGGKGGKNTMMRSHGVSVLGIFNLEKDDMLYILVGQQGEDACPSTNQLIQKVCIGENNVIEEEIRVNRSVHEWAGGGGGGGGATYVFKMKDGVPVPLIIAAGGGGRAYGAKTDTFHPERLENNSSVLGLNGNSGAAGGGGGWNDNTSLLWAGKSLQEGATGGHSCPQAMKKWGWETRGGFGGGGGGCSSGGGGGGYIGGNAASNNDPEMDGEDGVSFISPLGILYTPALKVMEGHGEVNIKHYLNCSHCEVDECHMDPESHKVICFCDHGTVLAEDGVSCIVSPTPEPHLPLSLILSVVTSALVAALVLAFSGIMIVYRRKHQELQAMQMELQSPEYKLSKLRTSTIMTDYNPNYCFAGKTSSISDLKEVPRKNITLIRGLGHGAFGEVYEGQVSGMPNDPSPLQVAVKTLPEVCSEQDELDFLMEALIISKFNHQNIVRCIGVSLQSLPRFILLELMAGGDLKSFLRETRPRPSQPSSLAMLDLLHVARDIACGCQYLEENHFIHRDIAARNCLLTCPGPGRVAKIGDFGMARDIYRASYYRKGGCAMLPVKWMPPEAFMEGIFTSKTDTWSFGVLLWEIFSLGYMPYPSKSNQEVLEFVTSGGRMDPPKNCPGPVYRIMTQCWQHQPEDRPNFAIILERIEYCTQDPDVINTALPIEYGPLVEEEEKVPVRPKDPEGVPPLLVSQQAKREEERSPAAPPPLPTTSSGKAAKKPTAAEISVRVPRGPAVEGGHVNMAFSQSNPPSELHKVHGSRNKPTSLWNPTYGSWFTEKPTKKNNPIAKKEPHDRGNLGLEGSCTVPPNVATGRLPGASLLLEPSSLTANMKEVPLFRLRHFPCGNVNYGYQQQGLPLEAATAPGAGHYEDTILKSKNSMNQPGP

Row | Structure (SMILES) | IC50 (ALK; ALK Kinase Inhibition) [nM] | IC50 (JAK2; JAK2 Kinase Inhibition) [nM] | IC50 (ALK; [1]) [nM] | IC50 (JAK2; [2]) [nM]
1 | COc1ccc(Nc2ncc3ccc(-c4cccc(Cl)c4)n3n2)cc1OC [Example 152, [7-(3-Chloro-phenyl)-pyrrolo[2,1-f][1,2,4]triazin-2-yl]-(3,4-dimethoxy-phenyl)-amine] | 1000 to 10000 | < 100 | – | –
2 | CN1CCN(c2ccc(Nc3ncc4ccc(-c5cnn(C)c5)n4n3)cc2)CC1 [Example 18, [4-(4-Methyl-piperazin-1-yl)-phenyl]-[7-(1-methyl-1H-pyrazol-4-yl)-pyrrolo[2,1-f][1,2,4]triazin-2-yl]-amine] | 100 to 1000 | < 100 | – | –
3 | CN1CCN(C(=O)c2ccc(Nc3ncc4ccc(-c5cccc(Cl)c5)n4n3)cc2)CC1 [Example 320, {4-[7-(3-Chloro-phenyl)-pyrrolo[2,1-f][1,2,4]triazin-2-ylamino]-phenyl}-(4-methyl-piperazin-1-yl)-methanone] | 100 to 1000 | < 100 | – | –
4 | CC(=O)c1ccccc1-c1ccc2cnc(Nc3ccc(N4CCN(C)CC4)cc3)nn12 [Example 402, 1-(2-{2-[4-(4-Methyl-piperazin-1-yl)-phenylamino]-pyrrolo[2,1-f][1,2,4]triazin-7-yl}-phenyl)-ethanone] | 100 to 1000 | < 100 | – | –
5 | c1ccc(-c2ccc3cnc(Nc4ccc(N5CCOCC5)cc4)nn23)cc1 [Example 2, (4-Morpholin-4-yl-phenyl)-(7-phenyl-pyrrolo[2,1-f][1,2,4]triazin-2-yl)amine] | 100 to 1000 | < 100 | – | –
6 | COc1cc(Nc2ncc3ccc(-c4cccc(Cl)c4)n3n2)cc(OC)c1OC [Example 143, [7-(3-Chloro-phenyl)-pyrrolo[2,1-f][1,2,4]triazin-2-yl]-(3,4,5-trimethoxy-phenyl)-amine] | 100 to 1000 | < 100 | – | –
7 | CN1C(=O)COc2cc(Nc3ncc4ccc(-c5cccc(S(=O)(=O)NC(C)(C)C)c5)n4n3)ccc21 [Example 648, N-tert-Butyl-3-[2-(4-methyl-3-oxo-3,4-dihydro-2H-benzo[1,4]oxazin-7-ylamino)-pyrrolo[2,1-f][1,2,4]triazin-7-yl]-benzenesulfonamide] | – | – | 100 to 1000 | < 100
8 | c1ccc2c(c1)cc1cnc(Nc3ccc(N4CCOCC4)cc3)nn12 [Example 261, (4-Morpholin-4-yl-phenyl)-[1,2,4]triazino[1,6-a]indol-2-yl-amine] | 100 to 1000 | < 100 | – | –
9 | COc1ccccc1-c1ccc2cnc(Nc3ccc4c(c3)OCC(=O)N4C)nn12 [Example 647, 7-[7-(2-Methoxy-phenyl)-pyrrolo[2,1-f][1,2,4]triazin-2-ylamino]-4-methyl-4H-benzo[1,4]oxazin-3-one] | – | – | 100 to 1000 | < 100
10 | Clc1cccc(-c2ccc3cnc(Nc4ccc(N5CCCC(N6CCOCC6)C5)cc4)nn23)c1 (stereo not shown) [Example 345, [7-(3-Chloro-phenyl)-pyrrolo[2,1-f][1,2,4]triazin-2-yl]-[4-(3-morpholin-4-yl-piperidin-1-yl)-phenyl]-amine] | 100 to 1000 | < 100 | – | –
11 | COc1ccccc1-c1ccc2cnc(Nc3cccc(N4CCN(CCO)CC4)c3)nn12 [Example 178, 2-(4-{3-[7-(2-Methoxy-phenyl)-pyrrolo[2,1-f][1,2,4]triazin-2-ylamino]-phenyl}-piperazin-1-yl)-ethanol] | < 100 | < 100 | – | –
12 | CC(O)c1cccc(Nc2ncc3ccc(-c4cccc(S(=O)(=O)NC(C)(C)C)c4)n3n2)c1 (stereo not shown) [Example 569, N-tert-Butyl-3-{2-[3-(1-hydroxy-ethyl)-phenylamino]-pyrrolo[2,1-f][1,2,4]triazin-7-yl}-benzenesulfonamide] | – | – | 100 to 1000 | < 100
13 | COc1cc2c(cc1Nc1ncc3ccc(-c4cccc(S(=O)(=O)NC5CC5)c4)n3n1)CCN(C[C@@H](C)O)CC2 [Example 523, N-Cyclopropyl-3-{2-[3-((R)-2-hydroxy-propyl)-8-methoxy-2,3,4,5-tetrahydro-1H-benzo[d]azepin-7-ylamino]-pyrrolo[2,1-f][1,2,4]triazin-7-yl}benzenesulfonamide] | – | – | < 100 | 100 to 1000
14 | COc1cc(CCN2CCN(C)CC2)ccc1Nc1ncc2ccc(-c3ccccc3N(C)S(C)(=O)=O)n2n1 [Example 491, N-[2-(2-{2-Methoxy-4-[2-(4-methyl-piperazin-1-yl)-ethyl]-phenylamino}-pyrrolo[2,1-f][1,2,4]triazin-7-yl)-phenyl]-N-methyl-methanesulfonamide] | – | – | < 100 | 100 to 1000
15 | COc1ccccc1-c1ccc2cnc(Nc3cc(OC)c(OC)c(OC)c3)nn12 [Example 142, [7-(2-Methoxy-phenyl)-pyrrolo[2,1-f][1,2,4]triazin-2-yl]-(3,4,5-trimethoxy-phenyl)-amine] | 100 to 1000 | < 100 | – | –
16 | CC(C)(C)NS(=O)(=O)c1cccc(-c2ccc3cnc(Nc4ccc(N5CCOCC5)cc4)nn23)c1 [Example 561, N-tert-Butyl-3-[2-(4-morpholin-4-yl-phenylamino)-pyrrolo[2,1-f][1,2,4]triazin-7-yl]-benzenesulfonamide] | – | – | 100 to 1000 | < 100
17 | CS(=O)(=O)c1cccc(-c2ccc3cnc(Nc4ccc5c(c4)CCC(N4CCOCC4)CC5)nn23)c1 (stereo not shown) [Example 611, [7-(3-Methanesulfonyl-phenyl)-pyrrolo[2,1-f][1,2,4]triazin-2-yl]-(7-morpholin-4-yl-6,7,8,9-tetrahydro-5H-benzocyclohepten-2-yl)-amine] | – | – | 100 to 1000 | < 100
18 | COc1ccc(Cl)cc1-c1ccc2cnc(Nc3ccc(N4CCCC(N5CCN(C)CC5)C4)cc3)nn12 (stereo not shown) [Example 349, [7-(5-Chloro-2-methoxy-phenyl)-pyrrolo[2,1-f][1,2,4]triazin-2-yl]-{4-[3-(4-methyl-piperazin-1-yl)-piperidin-1-yl]-phenyl}-amine] | < 100 | < 100 | – | –
19 | c1ccc(Nc2ncc3cc4ccccc4n3n2)cc1 [Example 270, Phenyl-[1,2,4]triazino[1,6-a]indol-2-yl-amine] | > 10000 | 100 to 1000 | – | –

Further lines, results first:

Row | IC50 (ALK; ALK Kinase Inhibition) [nM] | IC50 (JAK2; JAK2 Kinase Inhibition) [nM] | IC50 (ALK; [1]) [nM] | IC50 (JAK2; [2]) [nM] | Structure (SMILES)
20 | – | – | 100 to 1000 | < 100 | CN1CCN(c2cccc(Nc3ncc4ccc(-c5cnn(CCC#N)c5)n4n3)c2)CC1 [Example 977, 3-(4-{2-[3-(4-Methyl-piperazin-1-yl)-phenylamino]-pyrrolo[2,1-f][1,2,4]triazin-7-yl}-pyrazol-1-yl)-propionitrile]
21 | 100 to 1000 | < 100 | – | – | COCc1cccc(-c2ccc3cnc(Nc4ccc(N5CCN(C)CC5)cc4)nn23)c1 [Example 1503, [7-(3-Methoxymethyl-phenyl)-pyrrolo[2,1-f][1,2,4]triazin-2-yl]-[4-(4-methyl-piperazin-1-yl)-phenyl]-amine]
22 | < 100 | < 100 | – | – | CN(c1ccccc1-c1ccc2cnc(Nc3ccc(N4CCC(N5CCOCC5)CC4)cc3)nn12)S(C)(=O)=O [Example 1456, N-Methyl-N-(2-{2-[4-(4-morpholin-4-yl-piperidin-1-yl)-phenylamino]-pyrrolo[2,1-f][1,2,4]triazin-7-yl}-phenyl)-methanesulfonamide]
23 | – | – | 100 to 1000 | < 100 | CN1CCN(c2ccc(Nc3ncc4ccc(C5=CCN(S(C)(=O)=O)CC5)n4n3)cc2)CC1 [Example 1139, [7-(1-Methane sulfonyl-1,2,3,6-tetrahydro-pyridin-4-yl)-pyrrolo[2,1-f][1,2,4]triazin-2-yl]-[4-(4-methyl-piperazin-1-yl)-phenyl]-amine]
24 | – | – | 100 to 1000 | 1000 to 10000 | COc1cc(C2CCN(CC(=O)OC(C)(C)C)CC2)ccc1Nc1ncc2ccc(-c3ccccc3OC)n2n1 [Example 1277, (4-{3-Methoxy-4-[7-(2-methoxy-phenyl)-pyrrolo[2,1-f][1,2,4]triazin-2-ylamino]-phenyl}-piperidin-1-yl)-acetic acid tert-butyl ester]
25 | – | – | 100 to 1000 | < 100 | CN(c1ccccc1-c1ccc2cnc(Nc3ccn(CCN4CCOCC4)n3)nn12)S(C)(=O)=O [Example 1186, N-Methyl-N-(2-{2-[1-(2-morpholin-4-yl-ethyl)-1H-pyrazol-3-ylamino]-pyrrolo[2,1-f][1,2,4]triazin-7-yl}-phenyl)-methanesulfonamide]
26 | – | – | < 100 | 1000 to 10000 | COc1cc(C2CCN(CC(N)=O)CC2)ccc1Nc1ncc2c(O)cc(-c3ccccc3N(C)S(C)(=O)=O)n2n1 [Example 1259, 2-[4-(4-{5-Hydroxy-7-[2-(methanesulfonyl-methyl-amino)-phenyl]-pyrrolo[2,1-f][1,2,4]triazin-2-ylamino}-3-methoxy-phenyl)-piperidin-1-yl]-acetamide]
27 | – | – | 100 to 1000 | < 100 | CN1Cc2ccc(Nc3ncc4ccc(-c5cccc(S(=O)(=O)NC(C)(C)C)c5)n4n3)cc2C1 [Example 936, N-tert-Butyl-3-[2-(2-methyl-2,3-dihydro-1H-isoindol-5-ylamino)-pyrrolo[2,1-f][1,2,4]triazin-7-yl]-benzenesulfonamide]
28 | – | – | 100 to 1000 | < 100 | CC(C)(C)NS(=O)(=O)c1cccc(-c2ccc3cnc(Nc4ccc5c(c4)NC(=O)C5(C)C)nn23)c1 [Example 655, N-tert-Butyl-3-[2-(3,3-dimethyl-2-oxo-2,3-dihydro-1H-indol-6-ylamino)-pyrrolo[2,1-f][1,2,4]triazin-7-yl]-benzenesulfonamide]
29 | – | – | < 100 | < 100 | COc1cc(C2CCCN(CC(N)=O)C2)ccc1Nc1ncc2ccc(-c3ccccc3OC)n2n1 (racemic) [Example 860, (±)-2-(3-{3-Methoxy-4-[7-(2-methoxy-phenyl)-pyrrolo[2,1-f][1,2,4]triazin-2-ylamino]-phenyl}-piperidin-1-yl)-acetamide]
